# Measurements taken from a melting point compilation (Tetko et al.; mined from patent text by program, amines drawn as free bases though some values may be those of a salt).
row,SMILES,melting point [°C]
1,N#CC(Br)c1ccccn1 (stereo not drawn),62 to 64
2,N#Cc1c(SSc2ccc([N+](=O)[O-])cc2C(Cl)(Cl)Cl)ccc2ccccc12,170
3,COc1c(OCC(F)(F)C(F)(F)F)ccnc1CSc1nc2ccccc2[nH]1,116 to 117
4,CSc1ccc(-c2cc(C#N)c(=O)[nH]c2C)cc1,275 to 276
5,CCC1(C)C(=O)N(C(C)C)CC(C)(C)N1OC(C)(C)C#N (stereo not drawn),106 to 108
6,CCOC(=O)c1cccc(Cc2c[nH]cn2)c1O,133
7,O=C1Nc2ccc(Cl)cc2C(OCC2CC2)(C(F)(F)F)CN1C1CCC1 (stereo not drawn),156
8,CC(=O)N1c2ccccc2NC(=O)c2cscc21,228 to 230
9,COC1=C(OC)C(=O)C2=C(CCC(CCOc3ccc(C)cc3)CC2)C1=O,56 to 57
10,Cn1nc(OC2c3cc(C#N)ccc3OC(C)(C)C2(C)O)ccc1=O (stereo not drawn),197 to 199
11,CCOP(=O)(OCC)OC(=Cc1nccn1C)c1ccccc1,111 to 114
12,CSc1cn(C)cc(-c2cccc(C(F)(F)F)c2)c1=O,121 to 122
13,Cc1[nH]c(=O)n(C2CCCCC2)c1-c1ccc(Oc2ccccc2)cc1,198
14,OCc1cccc(-c2ccc(-c3cn([C@H]4CN5CCC4CC5)nn3)cc2)c1,207
15,CC(=O)NC1CCC(NC(=O)C2CC3c4cccc5c4c(cn5C(C)C)CC3N(C)C2)CC1 (stereo not drawn),> 280
16,CN1CCC(c2c[nH]c3cnc(-n4cncn4)cc23)CC1,209 to 211
17,CC1CCN(C)c2nc(O)ccc21 (stereo not drawn),134 to 135

row,SMILES,melting point [°C]
1,CC1CCn2nc(S(=O)(=O)Nc3c(Cl)cccc3Cl)nc2N1 (stereo not drawn),230 to 235
2,Cc1ccc(S(=O)(=S)OCC2CC2)cc1 (stereo not drawn),46 to 48
3,O=CC1CCSc2[nH]c3ccccc3c21 (stereo not drawn),60 to 65
4,NS(=O)(=O)c1ccc(NC(=O)Nc2ccc(Oc3ccccc3)cc2)cc1,236 to 237
5,CC1(C)CCCC(C)(C)N1c1nc(NCCO)nc(NCCO)n1,147 to 148
6,Cc1ccc(-c2cnc(N)c([N+](=O)[O-])c2)cc1,183 to 184
7,COC1=C(OC)C(=O)C2=C(CCC(CCO)CC2)C1=O,63 to 64
8,CC(C)(C)[Si](OCc1ccc([N+](=O)[O-])cc1)(c1ccccc1)c1ccccc1,80 to 81
9,Cc1nn2c(O)ccnc2c1-c1cc(-c2ccccc2)cs1,218 to 235
10,Clc1ccc(Cn2nncc2CN2CCC(c3ccccc3)(c3ccccc3)CC2)cc1,195
11,COc1ccc(-c2c(Cl)c(CN3C(=O)CCC3=O)nc3sc4c(c23)CCNC4)cc1,225 to 226
12,Cc1ccc2cccc(OCc3c(C)ccc(N(C)C(=O)CN4C(=O)c5ccccc5C4=O)c3C)c2n1,102 to 110
13,CSc1cnc2c(C)c(C)sc2c1O,233 to 236
14,CC(=O)OC1CCC2(C)C(CCC3C2CCC2(C)C(C(C)=O)CCC32)C1 (stereo not drawn),141 to 142
15,CSC(=S)N1C(CO)Cc2c([nH]c3ccccc23)C1CO (stereo not drawn),179 to 180
16,O=C(O)c1ccccc1Sc1ccccc1C(=O)O,226 to 227
17,OC1CSC(Oc2cccc(-c3ncccc3Cl)c2)C(O)C1O (stereo not drawn),217

# Second part, the molecule after the results:
row,melting point [°C],SMILES
1,173 to 175,COc1cc(F)c(C(O)CNCc2csc(NC(C)=O)n2)cc1OC (stereo not drawn)
2,142 to 144,CCNC(=O)Nc1ccc2c(c1)C(=O)N(CCO[N+](=O)[O-])CO2
3,98,COc1ccc(S(=O)(=O)C(C)(Cc2cccnc2)C(=O)NO)cc1 (stereo not drawn)
4,181 to 183,COc1cc(C(=O)O)cc(OC)c1OC(C)=O
5,174 to 177,C#CCOC(=O)c1cc(-n2c(=O)cc(C)n(C)c2=O)c(F)cc1C#N
6,169 to 171,Cc1nc(N2CCN(CC3CC3(F)F)C2=O)sc1C(=O)NCc1cccnc1 (stereo not drawn)
7,180 to 182,COC(=O)C1=C(C)NC(CCn2ccnc2)=C(C(=O)OC)C1c1cccc(Cl)c1Cl (stereo not drawn)
8,204 to 205,O=C(NC1CCOCC1)c1ccc2nonc2c1
9,202 to 204,COc1ccc2c(c1)sc1ncc(CO)n12
10,150 to 155,COc1ccc(C(=O)C(=O)c2ccc(OC(F)F)cc2)cc1C#N
11,152 to 153,Cc1nc(N2CCN(Cc3ccccc3)C2=O)sc1C(=O)NCc1ccc(F)c(F)c1
12,92 to 93,CC(=O)c1cn(Cc2ccccc2)c(=O)n(Cc2ccccc2)c1=O
13,297 to 299,COc1cc(C(=O)NS(=O)(=O)c2ccccc2C)ccc1Cn1cc(/C=C/C(=O)N2CCCC2)c2ccc(/C=C/C(=O)N3CCCC3)cc21
14,234 to 236,CN1CCN(c2cc(Cl)cc3c2c(=O)n(Cc2cccc(O)c2)c(=O)n3Cc2ccccc2)CC1
15,52.7 to 53.6,CCCCc1ccc(CC(Cl)C(=O)O)cc1 (stereo not drawn)
16,108 to 110,COc1ccc(CCNCC(O)c2ccc(C)s2)cc1OC (stereo not drawn)
17,142 to 143,CC(C#N)(CC#N)c1cccc([N+](=O)[O-])c1 (stereo not drawn)
18,50 to 52,C=C/C=C/CCOC(=O)c1cc(CBr)cc(CBr)c1
19,124 to 125,CCOC(=O)/C=C/c1cc(OCc2ccccc2)ccc1OCC
20,154,COc1cc(C(=O)CCCN2CCC(OC(=O)c3cc(Cl)c(N)c4c3OC(C)(C)C4)CC2)cc(OC)c1OC

row,melting point [°C],SMILES
1,117 to 121,O=C(Cn1c(-c2ccc([N+](=O)[O-])cc2)ncc(NC(=O)OCc2ccccc2)c1=O)NC(Cc1ccccc1)C(=O)C(F)(F)F (stereo not drawn)
2,76 to 78,Cc1[nH]c2ccc(CCN3CCCC3)cc2c1C(=O)OCc1ccccc1
3,226 to 228,COc1cc(Nc2c(C#N)cnc3cc(-c4ccc(CN5CCN(C)CC5)cc4)sc23)c(Cl)cc1Cl
4,189 to 190,COC(=O)c1cccc(C=CC(=O)O)c1
5,117 to 118,O=C(c1ccc(Sc2ccccc2)cc1)c1ccc(O)cc1O
6,38.1 to 38.7,CCCCc1ccc(C=Nc2ccc(C#N)cc2)cc1
7,61 to 62.5,COCCNCc1cccc(OCCCNc2nc(N)nn2C)c1
8,130,CS(=O)(=O)Nc1ccc(CCOc2ccc(C=C3SC(=O)NC3=O)cc2)cc1
9,105 to 107,Nc1ncccc1OCc1ccc(F)cc1F
10,119 to 120,COc1cc(OC)cc(-c2ncoc2-c2ccc(OC(F)(F)F)c(N)c2)c1
11,182 to 183,Oc1ccc(-c2nc(COc3ccc(CCCn4ccnc4)cc3)co2)cc1
12,109 to 112,O=C(CC(=O)c1cc(CN2CCOCC2)sc1Cl)NCc1ccc(Cl)cc1
13,63 to 66,CC(=O)OCC(C(OC(C)=O)c1ccc([N+](=O)[O-])cc1)[N+](=O)[O-] (stereo not drawn)
14,100,CCCCCCNC(=O)Oc1ccc2c(c1)CCCN2
15,201 to 202,COc1cc(N)ccc1-c1ccc(-c2ccc(N)cc2OC)o1
16,96 to 98,CC(C(=O)CC(C)(C)Cc1ccc(Cl)cc1)N1C(=O)c2ccccc2C1=O (stereo not drawn)
17,239,COc1cc(Nc2nccc(-c3ccc(NC(C)=O)cc3)n2)cc(OC)c1OC
18,146 to 147,CCOC(=O)C(CC(=O)c1ccccc1C)(NC(C)=O)C(=O)OCC
19,145,CCCCCCCCCCS(=O)(=O)NC(=O)c1cnc(C(N)=O)c(OC)c1
